For 28 molecules, IC50 results are on record in patent publication US7491819B1 (priority 2004, dated 2009).

pIC50: −log10 of the molar value.

The experiment addresses T1, HIV-integrase (Human immunodeficiency virus type 1 group M subtype B, UniProt P12497).
T1 construct: Recombinant integrase (0.26 ng) was incubated with the beads
The experiment is described as follows: HIV-Integrase Inhibition Activity (SPA bead strand-transfer assay). Format: biochemical. Particulars: Table 1; read-out: Activity (HIV-integrase inhibition, IC50 class). The essentials: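 Biotin-labelled substrate DNA (5 pmole) bound to streptavidin SPA beads, preloaded with recombinant integrase (0.26 ng) for 90 min at 37° C, then washed. Inhibitors and 0.1 fmol P33-labelled target DNA added; reaction stopped with 10 mM EDTA. Integration read as scintillation CPM.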
As a reminder, the pIC50 is −log10 of the IC50, conventionally taken in molar units. As for `CC1(C)OCCn2c1nc(C(=O)NCc1ccc(F)cc1C#CCOS(C)(=O)=O)c(O)c2=O` [Example 90, Pyrimido[2,1-c][1,4]oxazine-2-carboxamide, N-[[4-fluoro-2-[3-[(methylsulfonyl)oxy]-1-propynyl]phenyl]methyl]-4,6,7,9-tetrahydro-3-hydroxy-9,9-dimethyl-4-oxo-], the negative logarithm of the IC50 (pIC50) was 7.00 to 8.70. As for `CN(C)CC#Cc1cc(F)ccc1CNC(=O)c1nc2n(c(=O)c1O)CCOC2(C)C` [Example 91, Pyrimido[2,1-c][1,4]oxazine-2-carboxamide, N-[[2-[3-(dimethylamino)-1-propynyl]-4-fluorophenyl]methyl]-4,6,7,9-tetrahydro-3-hydroxy-9,9-dimethyl-4-oxo-], the negative-log IC50 (pIC50) was 7.00 to 8.70. With `CC1(C)OCCn2c1nc(C(=O)NCc1ccc(F)cc1C#CCS(C)(=O)=O)c(O)c2=O` [Example 92, Pyrimido[2,1-c][1,4]oxazine-2-carboxamide, N-[[4-fluoro-2-[3-(methylsulfonyl)-1-propynyl]phenyl]methyl]-4,6,7,9-tetrahydro-3-hydroxy-9,9-dimethyl-4-oxo-] the figure was 7.00 to 8.70; with `CC1(C)OCCn2c1nc(C(=O)NCc1ccc(F)cc1C#CCN1CCCCS1(=O)=O)c(O)c2=O` [Example 93, Pyrimido[2,1-c][1,4]oxazine-2-carboxamide, N-[[4-fluoro-2-[3-(tetrahydro-1,1-dioxido-2H-1,2-thiazin-2-yl)-1-propynyl]phenyl]methyl]-4,6,7,9-tetrahydro-3-hydroxy-9,9-dimethyl-4-oxo-], 7.00 to 8.70. In the case of `CC1(C)OCCn2c1nc(C(=O)NCc1cccc3c1NC(=O)C3)c(O)c2=O` [Example 94] it was 7.00 to 8.70. With `CC1(C)OCCn2c1nc(C(=O)NCc1ccc(F)cc1O)c(O)c2=O` [Example 95, Pyrimido[2,1-c][1,4]oxazine-2-carboxamide, N-[(4-fluoro-2-hydroxyphenyl)methyl]-4,6,7,9-tetrahydro-3-hydroxy-9,9-dimethyl-4-oxo-] the figure was 7.00 to 8.70; with `CNC(=O)COc1cc(F)ccc1CNC(=O)c1nc2n(c(=O)c1O)CCOC2(C)C` [Example 97, Pyrimido[2,1-c][1,4]oxazine-2-carboxamide, N-[[4-fluoro-2-[2-(methylamino)-2-oxoethoxy]phenyl]methyl]-4,6,7,9-tetrahydro-3-hydroxy-9,9-dimethyl-4-oxo-], 7.00 to 8.70. For the molecule `CN(C)C(=O)COc1cc(F)ccc1CNC(=O)c1nc2n(c(=O)c1O)CCOC2(C)C` [Example 98, Pyrimido[2,1-c][1,4]oxazine-2-carboxamide, N-[[2-[2-(dimethylamino)-2-oxoethoxy]-4-fluorophenyl]methyl]-4,6,7,9-tetrahydro-3-hydroxy-9,9-dimethyl-4-oxo-], the pIC50 was 7.00 to 8.70. In the case of `CSc1cc(F)ccc1CNC(=O)c1nc2n(c(=O)c1O)CCOC2(C)C` [Example 100, Pyrimido[2,1-c][1,4]oxazine-2-carboxamide, N-[[4-fluoro-2-(methylthio)phenyl]methyl]-4,6,7,9-tetrahydro-3-hydroxy-9,9-dimethyl-4-oxo-] it was 7.00 to 8.70. With `CC1(C)OCCn2c1nc(C(=O)NCc1ccc(F)cc1S(C)(=O)=O)c(O)c2=O` [Example 101, Pyrimido[2,1-c][1,4]oxazine-2-carboxamide, N-[[4-fluoro-2-(methylsulfonyl)phenyl]methyl]-4,6,7,9-tetrahydro-3-hydroxy-9,9-dimethyl-4-oxo-] the figure was 7.00 to 8.70; with `C[S+]([O-])c1cc(F)ccc1CNC(=O)c1nc2n(c(=O)c1O)CCOC2(C)C` (stereo not shown) [Example 102, Pyrimido[2,1-c][1,4]oxazine-2-carboxamide, N-[[4-fluoro-2-(methylsulfinyl)phenyl]methyl]-4,6,7,9-tetrahydro-3-hydroxy-9,9-dimethyl-4-oxo], 7.00 to 8.70. In the case of `CS(=N)c1cc(F)ccc1CNC(=O)c1nc2n(c(=O)c1O)CCOC2(C)C` (stereo not shown) [Example 103, Pyrimido[2,1-c][1,4]oxazine-2-carboxamide, N-[[4-fluoro-2-(S-methylsulfinimidoyl)phenyl]methyl]-4,6,7,9-tetrahydro-3-hydroxy-9,9-dimethyl-4-oxo-] it was 7.00 to 8.70. `CC1(C)OCCn2c1nc(C(=O)NCc1cccc(C3(C(F)(F)F)N=N3)c1)c(O)c2=O` [Example 105, Pyrimido[2,1-c][1,4]oxazine-2-carboxamide, 4,6,7,9-tetrahydro-3-hydroxy-9,9-dimethyl-4-oxo-N-[[3-[3-(trifluoromethyl)-3H-diazirin-3-yl]-phenyl]methyl]-]: the pIC50 was 7.00 to 8.70.

For the molecule `Cn1nnc(-c2cc(F)ccc2CNC(=O)c2nc3n(c(=O)c2O)CCOC3(C)C)n1` [Example 106, Pyrimido[2,1-c][1,4]oxazine-2-carboxamide, N-[[4-fluoro-2-(2-methyl-2H-tetrazol-5-yl)phenyl]methyl]-4,6,7,9-tetrahydro-3-hydroxy-9,9-dimethyl-4-oxo-], the negative-log IC50 (pIC50) was 7.00 to 8.70. In the case of `Cn1nnnc1-c1cc(F)ccc1CNC(=O)c1nc2n(c(=O)c1O)CCOC2(C)C` [Example 107, Pyrimido[2,1-c][1,4]oxazine-2-carboxamide, N-[[4-fluoro-2-(1-methyl-1H-tetrazol-5-yl)phenyl]methyl]-4,6,7,9-tetrahydro-3-hydroxy-9,9-dimethyl-4-oxo-] it was 7.00 to 8.70. For the molecule `CN(C)S(=O)(=O)c1cc(F)ccc1CNC(=O)c1nc2n(c(=O)c1O)CCOC2(C)C` [Example 108, Pyrimido[2,1-c][1,4]oxazine-2-carboxamide, N-[[2-[(dimethylamino)sulfonyl]-4-fluorophenyl]methyl]-4,6,7,9-tetrahydro-3-hydroxy-9,9-dimethyl-4-oxo-], the negative-log IC50 (pIC50) is 7.00 to 8.70. With `CNS(=O)(=O)c1cc(F)ccc1CNC(=O)c1nc2n(c(=O)c1O)CCOC2(C)C` [Example 109, Pyrimido[2,1-c][1,4]oxazine-2-carboxamide, N-[[4-fluoro-2-[(methylamino)sulfonyl]phenyl]methyl]-4,6,7,9-tetrahydro-3-hydroxy-9,9-dimethyl-4-oxo-] the figure was 7.00 to 8.70. With `CC1(C)OCCn2c1nc(C(=O)NCc1ccc(F)cc1S(N)(=O)=O)c(O)c2=O` [Example 110, Pyrimido[2,1-c][1,4]oxazine-2-carboxamide, N-[[2-(aminosulfonyl)-4-fluorophenyl]methyl]-4,6,7,9-tetrahydro-3-hydroxy-9,9-dimethyl-4-oxo-] the figure was 7.00 to 8.70; with `CC1(C)OCCn2c1nc(C(=O)NCc1ccc(F)cc1S(=O)(=O)N1CCC1)c(O)c2=O` [Example 111, Pyrimido[2,1-c][1,4]oxazine-2-carboxamide, N-[[2-(1-azetidinylsulfonyl)-4-fluorophenyl]methyl]-4,6,7,9-tetrahydro-3-hydroxy-9,9-dimethyl-4-oxo-], 7.00 to 8.70.

Take `CSc1ccccc1CNC(=O)c1nc2n(c(=O)c1O)CCOC2(C)C` [Example 112, Pyrimido[2,1-c][1,4]oxazine-2-carboxamide, 4,6,7,9-tetrahydro-3-hydroxy-9,9-dimethyl-N-[[2-(methylthio)phenyl]methyl]-4-oxo-]: the pIC50 was 7.00 to 8.70. With `C[S+]([O-])c1ccccc1CNC(=O)c1nc2n(c(=O)c1O)CCOC2(C)C` (stereo not shown) [Example 113, Pyrimido[2,1-c][1,4]oxazine-2-carboxamide, 4,6,7,9-tetrahydro-3-hydroxy-9,9-dimethyl-N-[[2-(methylsulfinyl)phenyl]methyl]-4-oxo-] the figure was 7.00 to 8.70; with `CC1(C)OCCn2c1nc(C(=O)NCc1ccccc1S(C)(=O)=O)c(O)c2=O` [Example 114, Pyrimido[2,1-c][1,4]oxazine-2-carboxamide, 4,6,7,9-tetrahydro-3-hydroxy-9,9-dimethyl-N-[[2-(methylsulfonyl)phenyl]methyl]-4-oxo-], 7.00 to 8.70; with `CC1(C)OCCn2c1nc(C(=O)NCc1ccc(F)cc1Nc1nccs1)c(O)c2=O` [Example 115, Pyrimido[2,1-c][1,4]oxazine-2-carboxamide, N-[[4-fluoro-2-(2-thiazolylamino)phenyl]methyl]-4,6,7,9-tetrahydro-3-hydroxy-9,9-dimethyl-4-oxo-], 7.00 to 8.70. With `Cc1nnc(Nc2cc(F)ccc2CNC(=O)c2nc3n(c(=O)c2O)CCOC3(C)C)s1` [Example 116, Pyrimido[2,1-c][1,4]oxazine-2-carboxamide, N-[[4-fluoro-2-[(5-methyl-1,3,4-thiadiazol-2-yl)amino]phenyl]methyl]-4,6,7,9-tetrahydro-3-hydroxy-9,9-dimethyl-4-oxo-] the figure was 7.00 to 8.70; with `CC1(C)OCCCn2c1nc(C(=O)NCc1ccc(F)cc1-n1cncn1)c(O)c2=O` [Example 117, 6H-Pyrimido[2,1-c][1,4]oxazepine-2-carboxamide, N-[[4-fluoro-2-(1H-1,2,4-triazol-1-yl)phenyl]methyl]-4,7,8,10-tetrahydro-3-hydroxy-10,10-dimethyl-4-oxo-], 7.00 to 8.70.

As to `CNC(=O)c1cc(F)ccc1CNC(=O)c1nc2n(c(=O)c1O)CCCOC2(C)C` [Example 118, 6H-Pyrimido[2,1-c][1,4]oxazepine-2-carboxamide, N-[[4-fluoro-2-[(methylamino)carbonyl]phenyl]methyl]-4,7,8,10-tetrahydro-3-hydroxy-10,10-dimethyl-4-oxo-], the negative logarithm of the IC50 (pIC50) was 7.00 to 8.70. In the case of `CCC1(CC)OCCn2c1nc(C(=O)NCc1ccc(F)cc1-n1cncn1)c(O)c2=O` [Example 119, Pyrimido[2,1-c][1,4]oxazine-2-carboxamide, 9,9-diethyl-N-[[4-fluoro-2-(1H-1,2,4-triazol-1-yl)phenyl]methyl]-4,6,7,9-tetrahydro-3-hydroxy-4-oxo-] it was 7.00 to 8.70. With `CCC1(CC)OCCn2c1nc(C(=O)NCc1ccc(F)cc1C(=O)NC)c(O)c2=O` [Example 120, Pyrimido[2,1-c][1,4]oxazine-2-carboxamide, 9,9-diethyl-N-[[4-fluoro-2-[(methylamino)carbonyl]phenyl]methyl]-4,6,7,9-tetrahydro-3-hydroxy-4-oxo-] the figure was 7.00 to 8.70.
